Assay results: patent publication US5085995A, “Method for producing saffron stigma-like tissue and method for producing useful components from saffron stigma-like tissue” (Somar Corporation, priority 1989, dated 1992)

Assays:
Type in all cases: cell-based
[1] = test system: saffron ovary; experiment: Tissue culture of saffron ovary in Linsmaier-Skoog medium with alanine; visual rating of stigma-like tissue (Example 4); details: Ki 2 ppm, scale 0-10
Text: (§1) The relative amount of the stigma-like tissue was visually determined and rated according to an 11-part divided scale, taking an amount corresponding to the amount of naturally-occurring three stigmata containing saffron pigment as 10, nil as 0, and equally dividing the interval therebetween.
(§2) The relative color density of the stigma-like tissue was visually determined, and rated according to an 11-part divided scale, taking a density corresponding to the density of a naturally-occurring stigma containing saffron pigment as 10 and colorlessness as 0, and equally dividing the interval therebetween.
(§3) Guaran powder was then added to the medium in a concentration of 0.2% by weight. The medium was sterilized at 120° C. for 20 minutes in an autoclave. The sterilized medium was aloquated into sterile plastic plates having a diameter of 55 mm, followed by cooling to solidify.
(§4) A bud of a saffron flower before opening was harvested, sterilized by soaking in a 0.5 vol% sodium hypochlorite aqueous solution for 10 minutes, and washed with water. The ovary portion of the bud was taken out and cut to pieces of about 8 mm. Each cut piece was seeded on each of the above-prepared solid media.
(§5) The ovary was subjected to static culture at 25° C. in a dark room. Production of a stigma-like tissue was recognized in the cultures in about 4 weeks at the soonest. In 7 weeks, the stigma-like tissue grew and assumed a red color, indicating considerable production of the saffron pigment.
(§6) After 7 weeks of culturing, the tissue cultures were visually observed and evaluated in the same manner as in Example 1.
A saffron ovary was cultured in the same manner as in Example 3, except for replacing the MS medium with a Linsmaier-Skoog medium to which Ki, NAA and alanine were added in the concentrations shown in Table 11.

[2] = test system: female organ and/or corolla tube of saffron; experiment: Tissue culture of female organ and/or corolla tube of saffron in the presence of alanine; details: compared with cultures in the absence of alanine
Text: In this embodiment, a female organ and/or a corolla tube of a saffron flower is tissue-cultured in a medium containing a plant hormone and alanine in a bright or dark room.
Female organs and/or corolla tubes to be cultured are harvested from saffron flowers before opening, i.e., flowers in the bud and subjected to tissue culture in the manner as in the first embodiment by using a medium containing alanine to produce and proliferate the stigma-like tissue. When using female organs and/or corolla tubes harvested after flower opening, the amount of the stigma-like tissue produced tends to be reduced.
In cases where female organs and/or corolla tubes are cultured in the second embodiment, the culture medium should further contain alanine to accelerate the production of the stigma-like tissue. Alanine is preferably added to a medium in concentrations of from about 0.005 to 10g/l, more preferably from 0.1 to 10g/l. The alanine to be added may be any of D- or L-optical isomers and a racemate.
Tissue culture according to the present invention can be performed either by static culture using a solid medium or by shake culture using a liquid medium. The solid medium includes a medium containing about 0.8% by weight of agar and a Murashige-Skoog medium containing 0.2% by weight of guaran. The culturing may be in either a bright room or a dark room. […]

[3] = test system: saffron ovary; experiment: Tissue culture of saffron ovary in MS medium with alanine; visual rating of stigma-like tissue (Example 3); details: BA 10 ppm, 7 weeks, scale 0-10
Text: as §1, §2, §3, §4, §5, §6

For C[C@H](N)C(=O)O (racemic) [Alanine, alanine], the “Relative Color Density of Stigma-Like Tissue Containing Saffron Pigment” value (“Relative Color Density” below) ([1]; alanine 0.01 g/l, NAA 0.1 ppm) was 5, the “Relative Production of Stigma-Like Tissue Containing Saffron Pigment” value (“Relative Production” below) ([1]; alanine 0.01 g/l, NAA 0.1 ppm) was 3 and the “Relative Color Density” value ([1]; alanine 0.01 g/l, NAA 1.0 ppm) was 6. The “Relative Production” value ([1]; alanine 0.01 g/l, NAA 1.0 ppm) was 3, the “Relative Color Density” value ([1]; alanine 0.1 g/l, NAA 0.1 ppm) was 6 and the “Relative Production” value ([1]; alanine 0.1 g/l, NAA 0.1 ppm) was 4. The “Relative Color Density” value ([1]; alanine 0.1 g/l, NAA 1.0 ppm) was 6, the “Relative Production” value ([1]; alanine 0.1 g/l, NAA 1.0 ppm) was 4 and the “Relative Color Density” value ([1]; alanine 1.0 g/l, NAA 0.1 ppm) was 7. The “Relative Production” value ([1]; alanine 1.0 g/l, NAA 0.1 ppm) was 5, the “Relative Color Density” value ([1]; alanine 1.0 g/l, NAA 1.0 ppm) was 7 and the “Relative Production” value ([1]; alanine 1.0 g/l, NAA 1.0 ppm) was 5. The “Relative Color Density” value ([1]; alanine 5.0 g/l, NAA 0.1 ppm) was 6, the “Relative Production” value ([1]; alanine 5.0 g/l, NAA 0.1 ppm) was 5 and the “Relative Color Density” value ([1]; alanine 5.0 g/l, NAA 1.0 ppm) was 7. For the same compound, the “Relative Production” value ([1]; alanine 5.0 g/l, NAA 1.0 ppm) was 5, the “quantities of stigma-like tissue and the pigment” value [2] was “larger quantities of stigma-like tissue and the pigment” and the “Relative Color Density” value ([3]; alanine 0.005 g/l, NAA 0.1 ppm) was 8. For the same compound, the “Relative Production” value ([3]; alanine 0.005 g/l, NAA 0.1 ppm) was 4, the “Relative Color Density” value ([3]; alanine 0.005 g/l, NAA 1.0 ppm) was 8 and the “Relative Production” value ([3]; alanine 0.005 g/l, NAA 1.0 ppm) was 4. The “Relative Color Density” value ([3]; alanine 0.01 g/l, NAA 0.1 ppm) was 8, the “Relative Production” value ([3]; alanine 0.01 g/l, NAA 0.1 ppm) was 5 and the “Relative Color Density” value ([3]; alanine 0.01 g/l, NAA 1.0 ppm) was 8. For the same compound, the “Relative Production” value ([3]; alanine 0.01 g/l, NAA 1.0 ppm) was 5, the “Relative Color Density” value ([3]; alanine 0.1 g/l, NAA 0.1 ppm) was 9 and the “Relative Production” value ([3]; alanine 0.1 g/l, NAA 0.1 ppm) was 5. For the same compound, the “Relative Color Density” value ([3]; alanine 0.1 g/l, NAA 1.0 ppm) was 9, the “Relative Production” value ([3]; alanine 0.1 g/l, NAA 1.0 ppm) was 6 and the “Relative Color Density” value ([3]; alanine 1.0 g/l, NAA 0.1 ppm) was 9. For the same compound, the “Relative Production” value ([3]; alanine 1.0 g/l, NAA 0.1 ppm) was 7, the “Relative Color Density” value ([3]; alanine 1.0 g/l, NAA 1.0 ppm) was 9 and the “Relative Production” value ([3]; alanine 1.0 g/l, NAA 1.0 ppm) was 8. For the same compound, the “Relative Color Density” value ([3]; alanine 5.0 g/l, NAA 0.1 ppm) was 9, the “Relative Production” value ([3]; alanine 5.0 g/l, NAA 0.1 ppm) was 6 and the “Relative Color Density” value ([3]; alanine 5.0 g/l, NAA 1.0 ppm) was 8. For the same compound, the “Relative Production” value ([3]; alanine 5.0 g/l, NAA 1.0 ppm) was 6, the “Relative Color Density” value ([3]; alanine 10.0 g/l, NAA 0.1 ppm) was 8 and the “Relative Production” value ([3]; alanine 10.0 g/l, NAA 0.1 ppm) was 5. For the same compound, the “Relative Color Density” value ([3]; alanine 10.0 g/l, NAA 1.0 ppm) was 8, the “Relative Production” value ([3]; alanine 10.0 g/l, NAA 1.0 ppm) was 5 and the “Relative Color Density” value ([3]; alanine 20.0 g/l, NAA 0.1 ppm) was 8. For the same compound, the “Relative Production” value ([3]; alanine 20.0 g/l, NAA 0.1 ppm) was 3.
